Drawing on PubChem BioAssay AID1552 (Sanford-Burnham Center for Chemical Genomics, 2009), this text covers Kd for 73 compounds.

The assay addresses Ubiquitin-conjugating enzyme E2 N (Homo sapiens) (UniProt P61088). The experiment in a line: UBE2N binders by NMR, biophysical, purified protein (AID 1552). The note with it: NMR binding to purified UBE2N.

The source made the active and inactive calls. How the calls were made is not given here.

Sequence of Ubiquitin-conjugating enzyme E2 N (Homo sapiens) (P61088 whole entry, looked up): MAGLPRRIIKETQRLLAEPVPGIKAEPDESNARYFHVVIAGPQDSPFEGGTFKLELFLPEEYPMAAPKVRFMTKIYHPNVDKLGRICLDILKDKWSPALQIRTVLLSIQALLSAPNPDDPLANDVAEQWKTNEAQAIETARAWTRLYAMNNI

As for `O=c1[nH]nc(Cc2ccccn2)c2ccccc12`, the Kd is > 4 mM (inactive).
Under `O=C1CSC(=O)N1CN1CCOCC1` stands > 4 mM (inactive); under `NC(=O)c1ccc(N2C(=O)CCC2=O)cc1Cl`, > 4 mM (inactive); under `C[C@@H]1CC[C@H]2[C@@H](C)C(=O)O[C@@H]3OC4(C)CC[C@@H]1[C@]32OO4`, > 4 mM (inactive).
Then `Cc1nc(CC(=O)O)c(-c2ccccc2)s1`, with > 4 mM (inactive); and `OCc1ccc2nonc2c1`, with > 4 mM (inactive).
Under `CC(CCC(=O)O)[C@H]1CCC2C3CC[C@@H]4C[C@H](O)CC[C@]4(C)C3CC[C@@]21C` (stereo partly drawn) stands > 4 mM (inactive); under `CC(=O)O[C@@H]1CC2C(C)(C)C(=O)C=C[C@]2(C)C2CC[C@@]3(C)[C@H](c4ccoc4)OC(=O)[C@H]4O[C@]43[C@@]21C` (stereo partly drawn), > 4 mM (inactive); under `CC(=O)Nc1ccn(-c2ccccc2)n1`, > 4 mM (inactive).
As for `Nc1ccn(C2O[C@H](CO)[C@@H](O)[C@H]2O)c(=O)n1` (stereo partly drawn), the Kd was > 4 mM (inactive).
Regarding `O=C(O)CNC(=O)c1ccccc1Cl`, the Kd was > 4 mM (inactive).
As to `O=C(Nc1ccncc1)c1c(F)cccc1F`, the Kd was > 4 mM (inactive).
As for `CCN(CC)c1nc2n(c(=O)n1)CCO2`, the Kd is > 4 mM (inactive).
Then `NC(=O)CSc1nc2ccccc2[nH]1`, with > 4 mM (inactive).
In the case of `CN(C)C(=O)CSc1nc(N)cc(=O)[nH]1`, the Kd was > 4 mM (inactive).
Under `O=C(O)c1csc(-c2ccccc2)n1` stands > 4 mM (inactive); under `COc1c2ccoc2nc2c(OC)c(OCC(O)C(C)(C)O)ccc12` (stereo not drawn), > 4 mM (inactive).
Then `COC(=O)Cc1cc(=O)n(-c2ccccc2)[nH]1`, with > 4 mM (inactive); and `C=C1CSc2nc(=O)c3c(C)c(C)sc3n21`, with > 4 mM (inactive).
Under `Cc1cc(C)cc(C(=O)n2cnnc2N)c1` stands > 4 mM (inactive); under `O=C(O)c1ccc(-c2cccs2)cc1`, > 4 mM (inactive).
Consider `Cn1c(C(=O)O)ccc1S(N)(=O)=O`, for which the Kd was > 4 mM (inactive).
Take `CC(=O)c1cccc(NS(=O)(=O)N2CCCCC2)c1`: the Kd is > 4 mM (inactive).
With `COc1cc2c(cc1-c1cc3cc4ccoc4cc3oc1=O)OCO2`, the Kd is > 4 mM (inactive).
Then `OCc1csc(-c2cccs2)n1`, with > 4 mM (inactive); and `Nc1ncnc2c1ncn2C1O[C@H](COP(=O)(O)O)[C@@H](O)[C@H]1O` (stereo partly drawn), with > 4 mM (inactive); and `S=c1[nH]c2cccnc2[nH]1`, with > 4 mM (inactive).
Under `Nc1c(Nc2ccccc2)c2ccccc2oc1=O` stands > 4 mM (inactive); under `Cn1c(=O)n(CC(=O)N2CCOCC2)c2ccccc21`, > 4 mM (inactive).
Under `N[C@@H](C(=O)O)[C@@H](O)[C@H](O)[C@H](O)CO` stands > 4 mM (inactive); under `CC1(C)CC2(CCO1)NCCN1C(=O)CSC12` (stereo not drawn), > 4 mM (inactive); under `Nc1cccc(NC(=O)c2ccco2)c1`, > 4 mM (inactive).
As to `O=C(NN1C(=O)c2ccccc2C1=O)c1cccs1`, the Kd is > 4 mM (inactive).
Then `CC(=O)c1cccc(NC(=O)Nc2c(C)nn(C)c2C)c1`, with > 4 mM (inactive).
For the compound `CN1CCN(C(=S)c2ccc(N(C)C)cc2)CC1`, the Kd is > 4 mM (inactive).
Consider `O=C1C=CC(=O)N1c1ccccc1O`, for which the Kd was > 4 mM (inactive).
Consider `O=c1/c(=C\c2cccnc2)sc2nc3ccccc3n12`, for which the Kd was > 4 mM (inactive).
Under `O=C1NC(=S)NC(=O)C1=Cc1cccs1` stands > 4 mM (inactive); under `CCCCCCCCCCCCCc1ccco1`, > 4 mM (inactive); under `N#Cc1c(N)c(C(=O)c2ccccc2)n2c1CCC2`, > 4 mM (inactive).
Then `O=C1C2C3C=CC(C3)C2C(=O)N1c1cccnc1` (stereo not drawn), with > 4 mM (inactive).
Under `Cc1cc(C(=O)c2c(C)nn(C)c2Cl)n(C)n1` stands > 4 mM (inactive); under `CCn1c2ccccc2c2nn(C)c(=N)nc21`, > 4 mM (inactive).
On to `COc1cc([C@@H]2c3cc4c(cc3[C@H](OC(C)=O)[C@H]3COC(=O)[C@@H]23)OCO4)cc(OC)c1OC`, for which the Kd is > 4 mM (inactive).
Then `CC(=O)c1ccc(CC2SC(N)=NC2=O)cc1` (stereo not drawn), with > 4 mM (inactive).
Consider `O=C(Nc1ccccc1F)c1ccncc1`, for which the Kd was > 4 mM (inactive).
As to `Cc1nn2c(nc1=O)SCC2(O)c1ccccc1` (stereo not drawn), the Kd is > 4 mM (inactive).
Then `O=C(c1nc2ncccn2n1)N1CCc2ccccc2C1`, with > 4 mM (inactive); and `COc1ccc(/C=C/c2cc(O)cc(O)c2)cc1`, with > 4 mM (inactive); and `COc1cccc(Oc2ccc(N)cc2)c1`, with > 4 mM (inactive).
Under `CN1CCN(C2CCN(Cc3ccccc3)CC2)CC1` stands > 4 mM (inactive); under `Nc1ccnc(C(=O)O)c1`, > 4 mM (inactive); under `COCC(=O)Nc1cc2c3c(c1)CCN3C(=O)CC2`, > 4 mM (inactive).
Under `CSc1nnc2ccc(-c3cccnc3)nn12` stands > 4 mM (inactive); under `Cc1occc1C(=O)Nc1nnc(C(F)(F)F)s1`, > 4 mM (inactive); under `O=c1[nH]c2ccc(S(=O)(=O)NC3CC3)cc2[nH]1`, > 4 mM (inactive).
In the case of `c1ccc(Cc2nnc3sc(-c4ccncc4)nn23)cc1`, the Kd is > 4 mM (inactive).
Consider `O=S(=O)(N1CCOCC1)n1nnc2ccccc21`, for which the Kd was > 4 mM (inactive).
As for `Cc1ccc2c(c1)=C(c1sc(N)nc1O)C(=O)N=2`, the Kd was > 4 mM (inactive).
Then `Cc1nnc(NCCCO)[nH]c1=O`, with > 4 mM (inactive); and `COCc1nn2c(N)c(C#N)cnc2c1-c1ccccc1`, with > 4 mM (inactive).
Then `CSc1nc(NC(C)C)nc(N2CCOCC2)n1`, with > 4 mM (inactive); and `O=C(Nc1cccnc1)c1cccs1`, with > 4 mM (inactive).
Under `CC(C)c1c(O)ccc2c1CCC1[C@@](C)(C=O)CCC[C@]21C` (stereo partly drawn) stands > 4 mM (inactive); under `C[C@@H]1O[C@@H](O[C@H]2[C@H](Oc3cc(O)c4c(=O)cc(-c5ccc(O)cc5)oc4c3)O[C@H](CO)[C@@H](O)[C@@H]2O)[C@H](O)[C@H](O)[C@H]1O`, > 4 mM (inactive).
Consider `O=C(Nc1cccc(C(F)(F)F)c1)c1cccnc1`, for which the Kd was > 4 mM (inactive).
Then `COc1ccccc1-c1noc(-c2ccncc2)n1`, with > 4 mM (inactive); and `Cc1ccc(CCNc2ccccc2)c[n+]1[O-]`, with > 4 mM (inactive).
As to `Cc1ccc(C)n1NC(=O)c1cccs1`, the Kd was > 4 mM (inactive).
For the compound `O=C(O)C1COc2ccccc2O1` (stereo not drawn), the Kd is > 4 mM (inactive).
Under `CSc1ccc(S(=O)(=O)N2CCCC2)cc1` stands > 4 mM (inactive); under `O=C(NCc1cccs1)c1ccc2c(c1)OCCO2`, > 4 mM (inactive).
Under `O=C(O)CS(=O)(=O)c1ccccc1[N+](=O)[O-]` stands > 4 mM (inactive).

Broadly, the Kd is the free concentration of one partner at which half of the binding sites on the other are occupied at equilibrium, for simple one-to-one binding.
